The values below come from patent US5387709A, “Substituted sulfonamides, process of preparation and medicines containing same” (Lipha Lyonnaise Industrielle Pharmaceutique, priority 1990, dated 1995).

One experiment concerns platelets of guinea-pig. In words: Inhibition of the platelet aggregation induced by U46619 (BORN test), guinea-pig platelets. The experiment is classed as cell-based. The settings on record: read-out: PLATELET AGGREGATION GUINEA-PIG IC 50. The source says:
(A) Inhibition of the platelet aggregation induced by U46619, a stable analogue of TXA2 (9,11-dideoxy-11α,9α-epoxymethanoprostaglandine F2 α):
The tests determine a concentration of compound which inhibits at 50% (CI50) a liminar aggregation induced by U46619. The activities of the compounds of the present invention are given in example 108.
(§1) The products of examples 1 to 107 have been tested for platelet aggregation on guinea-pig and on the contraction of the aorta in rat as described previously.

A further experiment relates to rat aorta. Nature of the experiment: Inhibition of the U46619 induced rat aorta vasoconstriction. It counts as cell-based. The settings on record: contraction by U46619 (142 nM), rat thoracic aorta, 37° C., read-out: VASOCONSTRICTION RAT AORTA IC 50. The protocol:
(B) Inhibition of the U46619 induced rat aorta vasoconstriction:
male rats weighing about 300 g are put to death by euthanasia; the thoracic aorta is rapidly taken out. A sample of about 1 cm is cut into a spiral, and placed in a vat containing 20 ml of nutrient medium (Krebs-Henseleit) kept a 37° C. and oxygenated (O2 95%, CO2 5%). The contractions are recorded with an isotonic strain gauge. After a rest of 45 mn, supramaximum contractions are provoked by the addition of an analogue of TXA2 (U46619: 142 nM) to the survival medium. A plateau is generally reached after 10 mn of contact, the latter not exceeding 25 mn. A rest of 30 mn and a plurality of rinses take place after each contraction. The products are added 10 mn after U46619 and allowed to rest 15 mn, after which delay the inhibition is measured. The inhibitory concentration 50 (IC) is determined for each compound studied and on a minimum of 3 aortas. The activities of the compounds of the present invention are described in example 108.
as §1

Like-named read-outs stand apart in the source and are kept apart here. Where only a bound is given, the exact number is not on record here.

Turning to `O=C(O)Cc1ccc(C[C@@H]2CCC[C@H]2NS(=O)(=O)c2ccc(F)cc2)cc1` (relative stereo) [Example 4, Trans-4-[[2-[[(4-fluorophenyl)sulfonyl]amino]cyclopentyl]methyl]benzeneacetic acid], the IC50 in the experiment on platelets of guinea-pig (Cavia porcellus, Platelet) came to 23000 nM; in the experiment on rat aorta (Rattus norvegicus), 200 nM.

With `O=S(=O)(NCC1(Cc2ccc(CCO)cc2)CCCC1)c1ccc(Cl)cc1` [Example 28, 4-Chloro-N-[[1-[[4-(2-hydroxyethyl)phenyl]methyl]cyclopentyl]methyl]benzenesulfonamide], the IC50 in the experiment with platelets of guinea-pig (Cavia porcellus, Platelet) is 2600 nM; in the experiment on rat aorta (Rattus norvegicus), > 1000 nM.

For the compound `O=C(O)CCNC(=O)Cc1ccc(CC2(CNS(=O)(=O)c3ccc(Cl)cc3)CCCC2)cc1` [Example 76, 3-[[2-[4-[[1-[[[(4-Chlorophenyl)sulfonyl]amino]methyl]cyclopentyl]methyl]phenyl]-1-oxoethyl]amino]propanoic acid], the IC50 was 2900 nM with platelets of guinea-pig (Cavia porcellus, Platelet) and > 1000 nM with rat aorta (Rattus norvegicus).

For the compound `O=C(O)Cc1ccc(CC2(CNS(=O)(=O)c3cccc(Cl)c3)CCCC2)cc1` [Example 52, 4-[[1-[[[(3-Chlorophenyl)sulfonyl]amino]methyl]cyclopentyl]methyl]benzeneacetic acid], the IC50 is > 5000 nM with platelets of guinea-pig (Cavia porcellus, Platelet) and > 1000 nM with rat aorta (Rattus norvegicus). Taken in the same sequence, the figures for `CCOC(=O)Cc1ccc(CC2(CNS(=O)(=O)c3ccc(Cl)cc3)CCCC2)cc1` [Example 77, Ethyl 4-[[1-[[[(4-chlorophenyl)sulfonyl]amino]methyl]cyclopentyl]methyl]benzeneacetate] were 2400 nM and > 1000 nM. As to “Complex of sodium 4-[[1-[[[(4-chlorophenyl)sulfonyl]amino]methyl]cyclopentyl]methyl]benzeneacetate and β-cyclodextrine (1:1) [Example 23]”, the values for the IC50 with platelets of guinea-pig and in the experiment on rat aorta were 480 nM and 40 nM, respectively. For the compound `O=C(O)Cc1ccc(CC2(CNS(=O)(=O)c3ccc(I)cc3)CCCC2)cc1` [Example 54, 4-[[1-[[[(4-Iodophenyl)sulfonyl]amino]methyl]cyclopentyl]methyl]benzeneacetic acid], the IC50 amounted to 1100 nM in the experiment with platelets of guinea-pig (Cavia porcellus, Platelet) and 40 nM with rat aorta (Rattus norvegicus). Taken in the same sequence, the figures for `O=C(O)Cc1ccc(CC2(CNS(=O)(=O)c3cccc([N+](=O)[O-])c3)CCCC2)cc1` [Example 58, 4-[[1-[[[(3-Nitrophenyl)sulfonyl]amino]methyl]cyclopentyl]methyl]benzeneacetic acid] were 6300 nM and 1000 nM. For `O=C(O)Cc1ccc(OC2CCCC2NS(=O)(=O)c2ccc(Cl)cc2)cc1` (centres unmarked) [Example 9, 4-[2-[[(4-chlorophenyl)sulfonyl]amino]cyclopentyloxy]benzeneacetic acid] the same measures were > 20000 nM and 1000 nM.

Turning to `Cc1ccc(S(=O)(=O)NCC2(Cc3ccc(CC(=O)O)cc3)CCCC2)cc1` [Example 24, 4-[[1-[[[(4-methylphenyl)sulfonyl]amino]methyl]cyclopentyl]methyl]benzeneacetic acid], the IC50 was 570 nM in the experiment on platelets of guinea-pig (Cavia porcellus, Platelet) and 300 nM with rat aorta (Rattus norvegicus). Turning to `COC(=O)Cc1ccc(CC2(CNS(=O)(=O)c3ccc(Cl)cc3)CCCC2)cc1` [Example 18, Methyl 4-[[1-[[[(4-chlorophenyl)sulfonyl]amino]methyl]cyclopentyl]methyl]benzeneacetate], the IC50 with platelets of guinea-pig (Cavia porcellus, Platelet) was 660 nM; in the experiment on rat aorta (Rattus norvegicus), > 1000 nM. For `O=C(O)Cc1ccc(CC2(CNS(=O)(=O)c3ccc(Cl)cc3)CCC(=O)CC2)cc1` [Example 91, 4-[[1-[[[(4-Chlorophenyl)sulfonyl]amino]methyl]-4-oxocyclohexyl]methyl]benzeneacetic acid] the same measures were 3100 nM and 1000 nM. For `Nc1ccc(S(=O)(=O)NCC2(Cc3ccc(CC(=O)O)cc3)CCCC2)cc1` [Example 86, 4-[[1-[[[(4-Aminophenyl)sulfonyl]amino]methyl]cyclopentyl]methyl]benzeneacetic acid] the same measures were 510 nM and 1000 nM. Consider `O=C(O)Cc1ccc(CC2(CNS(=O)(=O)c3cccs3)CCCC2)cc1` [Example 67, 4-[[1-[[[(Thien-2-yl)sulfonyl]amino]methyl]cyclopentyl]methyl]benzeneaceticacid], for which the IC50 is 1500 nM in the experiment with platelets of guinea-pig (Cavia porcellus, Platelet) and 280 nM in the experiment with rat aorta (Rattus norvegicus). Taken in the same sequence, the figures for `O=C(Cc1ccc(CC2(CNS(=O)(=O)c3ccc(Cl)cc3)CCCC2)cc1)N1CCOCC1` [Example 74, 4-Chloro-N-[[1-[[4-[2-(morpholin-4-yl)-2-oxoethyl]phenyl]methyl]cyclopentyl]methyl]benzenesulfonamide] were > 5000 nM and > 1000 nM. Taken in the same sequence, the figures for `O=C(O)Cc1ccc(CC2(CNS(=O)(=O)c3ccc(Br)cc3)CCCC2)cc1` [Example 53, 4-[[1-[[[(4-Bromophenyl)sulfonyl]amino]methyl]cyclopentyl]methyl]benzeneacetic acid] were 160 nM and 10 nM. As to `O=C(O)Cc1ccc(CC2(CNS(=O)(=O)c3cccc4ccccc34)CCCC2)cc1` [Example 96, 4-[[1-[[[(Naphthalen-1-yl)sulfonyl]amino]methyl]cyclopentyl]methyl]benzeneacetic acid], the IC50 in the experiment on platelets of guinea-pig (Cavia porcellus, Platelet) is 750 nM; in the experiment with rat aorta (Rattus norvegicus), > 1000 nM. Taken in the same sequence, the figures for `O=C(O)Cc1ccc(CC2(CNS(=O)(=O)c3ccc(Cl)cc3)CCCC2)cc1` [Example 19, 4-[[1-[[[(4-Chlorophenyl)sulfonyl]amino]methyl]cyclopentyl]methyl]benzeneacetic acid] were 260 nM and 100 nM. Taken in the same sequence, the figures for `CC1(C)CC(CNS(=O)(=O)c2ccc(Cl)cc2)(Cc2ccc(CC(=O)O)cc2)C1` [Example 89, 4-[[1-[[[(4-Chlorophenyl)sulfonyl]amino]methyl]-3,3-dimethylcyclobutyl]methyl]benzeneacetic acid] were 260 nM and 30 nM. Taken in the same sequence, the figures for `CSc1ccc(S(=O)(=O)NCC2(Cc3ccc(CC(=O)O)cc3)CCCC2)cc1` [Example 103, 4-[[1-[[[(4-methylthiophenyl]sulfonyl]amino]methyl]cyclopentyl]methyl]benzeneacetic acid] were 1000 nM and 180 nM. Consider `O=C(O)Cc1ccc(CC2(CNS(=O)(=O)c3ccc(Cl)cc3)CCC2)cc1` [Example 27, 4-[[1-[[[(4-chlorophenyl)sulfonyl]amino]methyl]cyclobutyl]methyl]benzeneacetic acid], for which the IC50 in the experiment with platelets of guinea-pig (Cavia porcellus, Platelet) turned out to be 290 nM; in the experiment with rat aorta (Rattus norvegicus), 20 nM. Taken in the same sequence, the figures for `O=C(O)Cc1ccc(C2(CNS(=O)(=O)c3ccc(Cl)cc3)CCCCC2)cc1` [Example 29, 4-[1-[[[(4-Chlorophenyl)sulfonyl]amino]methyl]cyclohexyl]benzeneacetic acid] were 5300 nM and 1000 nM.

With `O=C(O)Cc1ccc([C@@H]2CCCC[C@H]2NS(=O)(=O)c2ccc(Cl)cc2)cc1` (relative stereo) [Example 10, Trans-4-[2-[[(4-chlorophenyl)sulfonyl]amino]cyclohexyl]benzeneacetic acid], the IC50 in the experiment on platelets of guinea-pig (Cavia porcellus, Platelet) stood at 1300 nM; with rat aorta (Rattus norvegicus), 5000 nM. As to `O=C(O)Cc1ccc(C2(CNS(=O)(=O)c3ccc(Cl)cc3)CCCC2)cc1` [Example 14, 4-[1-[[[(4-Chlorophenyl)sulfonyl]amino]methyl]cyclopentyl]benzeneacetic acid], the IC50 in the experiment on platelets of guinea-pig (Cavia porcellus, Platelet) is 5500 nM; in the experiment on rat aorta (Rattus norvegicus) it was 70 nM. Turning to `O=C(O)Cc1ccc(CC2(CNS(=O)(=O)c3ccc4ccccc4c3)CCCC2)cc1` [Example 102, 4-[[1-[[[(Naphthalen-2-yl)sulfonyl]amino]methyl]cyclopentyl]methyl]benzeneacetic acid], the IC50 in the experiment with platelets of guinea-pig (Cavia porcellus, Platelet) came out at 1000 nM.

Consider `CS(=O)(=O)c1ccc(S(=O)(=O)NCC2(Cc3ccc(CCO)cc3)CCCC2)cc1` [Example 44, N-[[1-[[4-(2-Hydroxyethyl)phenyl]methyl]cyclopentyl]methyl]-4-methylsulfonylbenzenesulfonamide], for which, in the experiment on platelets of guinea-pig (Cavia porcellus, Platelet), the IC50 is > 5000 nM. For `O=C(O)Cc1ccc(CC2(CNS(=O)(=O)c3cccc4cccnc34)CCCC2)cc1` [Example 106, 4-[[1-[[[(Quinol-8-yl)sulfonyl]amino]methyl]cyclopentyl]methyl]benzeneacetic acid], in the experiment with platelets of guinea-pig (Cavia porcellus, Platelet), the IC50 was > 5000 nM. Turning to `O=S(=O)(NCC1(Cc2ccc(CCO)cc2)CCCC1)c1ccc(OC(F)(F)F)cc1` [Example 45, N-[[1-[[4-(2-Hydroxyethyl)phenyl]methyl]cyclopentyl]methyl]-4-trifluoromethoxybenzenesulfonamide], in the experiment with platelets of guinea-pig (Cavia porcellus, Platelet), the IC50 was > 5000 nM.

As for `O=C(O)Cc1ccc(C[C@@H]2CCC[C@H]2NS(=O)(=O)c2ccc(Cl)cc2)cc1` (relative stereo) [Example 1, Trans-4-[[2-[[(4-chlorophenyl)sulfonyl]amino]cyclopentyl]methyl]-benzeneacetic acid], in the experiment on platelets of guinea-pig (Cavia porcellus, Platelet), the IC50 worked out at 690 nM.
